Results taken from patent US8962627B2, “Oxime derivatives and their use as allosteric modulators of metabotropic glutamate receptors” (Prestwick Chemical, Inc., priority 2009, dated 2015).
Where a name gives a salt, the structure may show the parent alone.

Tests used:
[1] = target: T1, human mGluR4 transiently over-expressed in HEK-293 cells (Homo sapiens, UniProt Q14833); test: Human mGluR4 positive allosteric modulator evaluation using Ca++ functional assay; format: cell-based; settings: HEK-293 cells co-transfected with hmGluR4 and chimeric G protein; EC10 glutamate; intracellular calcium (Fluo4AM); read-out: mean EC50 of agonist/positive allosteric modulator activity on mGluR4
T1 construct: expressed in transfected cells; host or cells: HEK-293 cells, transient co-transfection by electroporation
Protocol: Human mGluR4 Positive Allosteric Modulator Evaluation Using Ca^++ Functional Assay
Compounds of the present invention were tested successively for their agonist and positive allosteric modulator activities on human mGluR4 transiently over-expressed in HEK-293 cells. They exert agonist activity if, by themselves in absence of the endogenous glutamate, they are able to activate mGluR4; and they exert positive allosteric modulator activity if they increase the action of the endogenous glutamate.
Cell Culture and Transfection
HEK-293 cells were maintained in Modified Eagle's Medium supplemented with 10% Foetal Calf Serum, 1% Penicillin/Streptomycin and 1% non essential amino acids at 37° C./5% CO2.
Cells were co-transfected by electroporation with two DNA plasmids encoding hmGluR4 and a chimeric G protein allowing redirection of the activation signal to intracellular calcium pathway. Cells were plated after transfection onto polyornithine coated, clear bottom, black-walled, 96-well plates and cultured for 24 h.
Calcium Assay EC50 Determination
Receptor activity was detected by changes in intracellular calcium measured using the fluorescent Ca^2+ sensitive dye, Fluo4AM (Molecular Probes).
The day of the assay, medium was aspirated and replaced during 3 hours by medium without serum supplemented with 1% Glutamax, 1% Penicillin/Streptomycin and 1% non essential amino acids. Then, cells were washed with freshly prepared buffer B (HBSS 1×(PAA), Hepes 20 mM, MgSO4-7H2O 1 mM, Na2CO3 3.3 mM, CaCl2-2H2O 1.3 mM, 0.5% BSA, Probenecid 2.5 mM) and loaded at 37° C. in 5% CO2 for 1.5 hours with buffer B containing 1 μM Fluo4AM 0.1 mg/mL Pluronic Acid, 7 μg/mL Glutamate Pyruvate Transaminase and 2 mM sodium pyruvate. Afterwards cells were washed twice with buffer B and 50 μL of this buffer were added to each well. Addition of compounds and intracellular Ca^2+ measurements (excitation 485 nm, emission 525 nm) were performed by the fluorescence microplate reader FlexStation (Molecular Devices).
Agonist and positive allosteric modulator activities of compounds were consecutively evaluated on the same cells plate. Agonist activity was first tested during 60 s with the addition of compound alone on the cells. Then, the cells were stimulated by an EC10 glutamate concentration and fluorescence recorded for additional 60 s. EC10 glutamate concentration is the concentration giving 10% of the maximal glutamate response. Agonist and/or positive allosteric modulator activity(ies) were evaluated in comparison to basal signal evoked by EC10 glutamate alone.
For EC50 determination, a dose-response test was performed using 6 to 9 concentrations of each compound of the invention. Dose-response curves were fitted using the sigmoidal dose-response (variable slope) analysis in GraphPad Prism program (Graph Pad Inc) and EC50 of agonist/positive allosteric modulator activity was calculated. Dose-response experiments were all performed in duplicate, two times independently.

T1 sequence (Q14833 33-912): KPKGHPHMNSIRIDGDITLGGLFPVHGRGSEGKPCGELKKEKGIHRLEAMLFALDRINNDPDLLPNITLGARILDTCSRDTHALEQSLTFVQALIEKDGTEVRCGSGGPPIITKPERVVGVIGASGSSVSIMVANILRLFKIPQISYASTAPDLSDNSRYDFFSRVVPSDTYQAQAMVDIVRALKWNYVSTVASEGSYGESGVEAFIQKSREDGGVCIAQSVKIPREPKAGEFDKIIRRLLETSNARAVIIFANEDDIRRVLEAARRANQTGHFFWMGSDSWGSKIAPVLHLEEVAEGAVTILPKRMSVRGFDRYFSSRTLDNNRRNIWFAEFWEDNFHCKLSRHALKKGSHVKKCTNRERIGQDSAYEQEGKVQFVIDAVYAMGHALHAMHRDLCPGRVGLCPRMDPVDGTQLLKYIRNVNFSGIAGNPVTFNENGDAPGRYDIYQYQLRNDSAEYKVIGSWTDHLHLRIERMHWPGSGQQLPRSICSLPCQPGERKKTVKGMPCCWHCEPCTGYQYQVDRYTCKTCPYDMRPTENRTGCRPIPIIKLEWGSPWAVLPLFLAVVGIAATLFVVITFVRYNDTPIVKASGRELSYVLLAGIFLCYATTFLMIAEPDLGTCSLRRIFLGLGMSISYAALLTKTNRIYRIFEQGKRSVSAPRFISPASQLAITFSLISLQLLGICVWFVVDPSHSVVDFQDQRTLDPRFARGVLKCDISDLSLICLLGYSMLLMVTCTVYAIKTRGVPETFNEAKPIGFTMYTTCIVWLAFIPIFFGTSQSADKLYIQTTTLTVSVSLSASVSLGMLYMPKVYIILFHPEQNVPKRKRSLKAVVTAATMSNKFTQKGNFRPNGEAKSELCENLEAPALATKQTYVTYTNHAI

Compound	EC50 [1] [nM]	melting point
COn1ccc2cc(-c3cc(=NO)c4ccccc4o3)ncc21 [Example 78, 2-(1-Methoxy-1H-pyrrolo[2,3-c]pyridin-5-yl)-chromen-4-one oxime]	< 5000	
ON=c1cc(-c2cc3cnccc3cn2)oc2ccccc12 [Example 61, 2-[2,6]Naphthyridin-3-yl-chromen-4-one oxime]	< 1000	
ON=c1cc(-c2cc3cccn3cn2)oc2ccc(OCCCOc3cccc(F)c3)cc12 [Example 163, 6-[3-(3-Fluoro-phenoxy)-propoxy]-2-pyrrolo[1,2-c]pyrimidin-3-yl-chromen-4-one oxime]	< 1000	
ON=c1cc(-c2cc3cccn3cn2)oc2ccc(OCCCOc3ccc(F)c(F)c3)cc12 [Example 164, 6-[3-(3,4-Difluoro-phenoxy)-propoxy]-2-pyrrolo[1,2-c]pyrimidin-3-yl-chromen-4-one oxime]	< 1000	
ON=c1cc(-c2cc3ccccc3cn2)oc2cc(-c3ccc(-c4ccccc4)cc3)ccc12 [Example 48, 7-(4-biphenyl)-2-isoquinolin-3-yl-chromen-4-one oxime]		283 to 285 °C
ON=c1cc(-c2cc3c(cn2)ncn3Cc2ccccc2)oc2ccccc12 [Example 68, 2-(1-Benzyl-1H-imidazo[4,5-c]pyridin-6-yl)-chromen-4-one oxime]		148 to 150 °C
ON=c1cc(-c2cc3ccn(O)c3cn2)oc2ccccc12 [Example 76, 2-(1-Hydroxy-7H-pyrrolo[2,3-c]pyridin-5-yl)-chromen-4-one oxime]	< 5000	
ON=c1cc(-c2ncc3ccccc3n2)oc2ccccc12 [Example 110, 2-quinazolin-2-yl-chromen-4-one oxime]		239 to 241 °C
ON=c1cc(-c2cc3ccccc3cn2)oc2cc(C#Cc3ccccc3Cl)ccc12 [Example 32, 7-(2-chlorophenyl)ethynyl-2-isoquinolin-3-yl-chromen-4-one oxime]		292 to 297 °C
Cc1cc(C)n2cnc(-c3cc(=NO)c4ccccc4o3)cc12 [Example 64, 2-(5,7-dimethyl-Pyrrolo[1,2-c]pyrimidin-3-yl)-chromen-4-one oxime]		> 250 °C (dec.)
ON=c1cc(-c2cc3cccn3cn2)oc2ccc(OCCn3ccnc3)cc12 (as salt: sodium) [Example 105, 6-(2-imidazol-1-O-ethoxy)-2-pyrrolo[1,2-c]pyrimidin-3-yl-chromen-4-one oxime]		> 250 °C (dec.)
O=c1[nH]c(-c2c/c(=N\O)c3ccccc3o2)cc2ccccc12 [Example 72, 3-{4-[(E)-Hydroxyimino]-4H-chromen-2-yl}-2H-isoquinolin-1-one]		310 to 315 °C (dec.)
Cl.NCCOc1ccc2oc(-c3cc4cccn4cn3)cc(=NO)c2c1		> 270 °C (dec.)
CN(C)CCOc1ccc2oc(-c3cc4cccn4cn3)cc(=NO)c2c1.Cl		> 275 °C (dec.)
Cl.ON=c1cc(-c2cc3sccc3cn2)oc2ccc(OCCN3CCc4ccccc4C3)cc12		234 to 237 °C
ON=c1cc(-c2cc3ccccc3cn2)oc2cc(-c3ccccc3)ccc12 [Example 47, 2-isoquinolin-3-yl-7-phenyl-chromen-4-one oxime]		275 to 278 °C
ON=c1cc(-c2cc3cc[nH]c3cn2)oc2ccccc12 [Example 75, 2-(1H-Pyrrolo[2,3-c]pyridin-5-yl)-chromen-4-one oxime]		270 to 275 °C (dec.)
CN1CCN(CCCNc2ccc3c(=NO)cc(-c4cc5ccccc5cn4)oc3c2)CC1 [Example 49, 2-isoquinolin-3-yl-7-[3-(4-methyl-piperazin-1-yl)-propylamino]-chromen-4-one oxime]		228 to 233 °C
CCN1CCN(CCOc2ccc3oc(-c4cc5cccn5cn4)cc(=NO)c3c2)CC1.Cl.Cl [Example 121]		> 240 °C (dec.)
Cl.ON=c1cc(-c2cc3cccn3cn2)oc2ccc(OCCNC3CCCC3)cc12		> 230 °C (dec.)
Cl.O=S1(=O)CCN(CCOc2ccc3oc(-c4cc5sccc5cn4)cc(=NO)c3c2)CC1		195 to 197 °C
ON=c1cc(-c2cc3sccc3cn2)oc2ccc(OCCc3ccc(F)cc3)cc12 (as salt: hydrochloride) [Example 130, 6-[2-(4-Fluoro-phenyl)-ethoxy]-2-thieno[3,2-c]pyridin-6-yl-chromen-4-one oxime]		228 to 234 °C
CN1CCN(CCOc2ccc3oc(-c4cc5ccccc5cn4)cc(=NO)c3c2)CC1 [Example 46, 2-isoquinolin-3-yl-6-[2-(4-methyl-piperazin-1-yl)-ethoxy]-chromen-4-one oxime]		233 to 236 °C
CN1CCN(CCCNc2ccc3oc(-c4cc5ccccc5cn4)cc(=NO)c3c2)CC1 [Example 45, 2-isoquinolin-3-yl-6-[3-(4-methyl-piperazin-1-yl)-propylamino]-chromen-4-one oxime]		208 to 211 °C
CN(C)CCCOc1ccc2oc(-c3cc4cccn4cn3)cc(=NO)c2c1.Cl		> 270 °C (dec.)
CN(C)c1ccc(C#Cc2ccc3c(=NO)cc(-c4cc5ccccc5cn4)oc3c2)cc1 [Example 27, 7-(4-dimethylaminophenyl)ethynyl-2-isoquinolin-3-yl-chromen-4-one oxime]		235 to 240 °C
Cl.ON=c1cc(-c2cc3sccc3cn2)oc2ccc(OCCN3CCCOCC3)cc12		223 to 226 °C
ON=c1cc(-c2cc3cccn3cn2)oc2ccc(OCCc3ccc(F)cc3)cc12 (as salt: hydrochloride) [Example 109, 6-[2-(4-fluoro-phenyl)-ethoxy]-2-pyrrolo[1,2-c]pyrimidin-3-yl-chromen-4-one oxime, hydrochloride]		234 to 236 °C
COc1cccc2cnc(-c3cc(=NO)c4ccccc4o3)cc12 [Example 19, 2-(5-methoxy-isoquinolin-3-yl)-chromen-4-one oxime]		245 to 247 °C

The next lines start with the values.

EC50 [1] [nM]	melting point	Compound
	248 to 250 °C	Cc1cc2c(=NO)cc(-c3cc4ccccc4cn3)oc2cc1C#Cc1ccccc1 [Example 25]
	253 to 256 °C	ON=c1cc(-c2cc3ccccc3cn2)oc2c(F)cc(F)cc12 [Example 7, 6,8-difluoro-2-isoquinolin-3-yl-chromen-4-one oxime]
	270 to 272 °C	ON=c1cc(-c2cc3ccccc3cn2)oc2c(Cl)cccc12 [Example 8, 8-chloro-2-isoquinolin-3-yl-chromen-4-one oxime]
	260 to 261 °C	ON=c1cc(-c2cc3ccc(Cl)cc3cn2)oc2ccccc12 [Example 16, 2-(7-chloro-isoquinolin-3-yl)-chromen-4-one oxime]
	275 to 278 °C	ON=c1cc(-c2cc3ccccc3cn2)oc2cccc(F)c12 [Example 9]
	268 to 270 °C	ON=c1cc(-c2cc3c(Br)cccc3cn2)oc2ccccc12 [Example 17, 2-(5-bromo-isoquinolin-3-yl)-chromen-4-one oxime]
	239 to 241 °C	COc1ccc2cc(-c3cc(=NO)c4ccccc4o3)ncc2c1 [Example 13, 2-(7-methoxy-isoquinolin-3-yl)-chromen-4-one oxime]
	233 to 235 °C	ON=c1cc(-c2cc3ccc(F)cc3cn2)oc2ccccc12 [Example 12, 2-(7-fluoro-isoquinolin-3-yl)-chromen-4-one oxime]
	248 to 250 °C	ON=c1cc(-c2cc3ccc(O)cc3cn2)oc2ccccc12 [Example 60, 2-(7-hydroxy-isoquinolin-3-yl)-chromen-4-one oxime]
	267 to 270 °C	Cc1cc2c(=NO)cc(-c3cc4ccccc4cn3)oc2cc1Br [Example 3, 7-bromo-2-isoquinolin-3-yl-6-methyl-chromen-4-one oxime]
	280 °C (dec.)	N#Cc1ccc2oc(-c3cc4ccccc4cn3)cc(=NO)c2c1 [Example 38, 6-cyano-2-isoquinolin-3-yl-chromen-4-one oxime]
	272 to 275 °C	Nc1cccc(C#Cc2ccc3c(=NO)cc(-c4cc5ccccc5cn4)oc3c2)c1 [Example 29, 7-(3-aminophenyl)ethynyl-2-isoquinolin-3-yl-chromen-4-one oxime]
	266 to 269 °C	COc1cc2cnc(-c3cc(=NO)c4ccccc4o3)cc2cc1OC [Example 14, 2-(6,7-dimethoxy-isoquinolin-3-yl)-chromen-4-one oxime]
